Reference: paper PMC10800876, “Evaluation of proline-rich antimicrobial peptides as potential lead structures for novel antimycotics against Cryptococcus neoformans” (Frontiers in Microbiology, 2024)
Values after ≈ are worked out from the molar mass of the structure shown. Where two headings read alike, the source gives them in different places. Values belong to the compound of their own block, whether it stands above or below them. Starred links: 1 amine or outer side, 2 acyl side, 3 side chain; linkers in the order of their positions; H or OH if unused. Non-standard residues stand in square brackets, D forms with d. Residues, ends and D or L forms follow the SMILES beside them. *: point of attachment. 5FAM = O=C1OC2(c3ccc(O)cc3Oc3cc(O)ccc32)c2ccc(C(=O)*)cc21; δOrn(α-TMG) = CN(C)C(=N[C@@H](CCCN[*:1])C(=O)[*:2])N(C)C; Orn = NCCC[C@H](N)C(=O)O

How the values were obtained:
[1] = system: C. neoformans 1841 (serotype D); conditions: for activity of Cf-labeled peptide relative to the corresponding unlabeled peptide: C. neoformans 1841
[2] = system: C. neoformans H99 (serotype A)
[3] = system: C. neoformans KN99α (serotype A, mating type MATα)
[4] = KN99α (serotype A, mating type MATα, 24 h)
[5] = broth microdilution, 50% SAB in phosphate buffer, 30°C, read after 24 h, n = 6
[6] = broth microdilution, 50% SAB in phosphate buffer, 30°C, read after 48 h, n = 6

MIC (μmol/L) 1841 24 h ([1]; 1841 (serotype D, 24 h, pH 7.5)): 1.0 µmol/L (≈ 3.88 µg/mL) | MIC (μmol/L) 1841 48 h ([1]; 1841 (serotype D, 48 h, pH 7.5)): 2.1 µmol/L (≈ 8.15 µg/mL) | MIC (μmol/L) H99 24 h ([2]; H99 (serotype A, 24 h)): 1.0 µmol/L (≈ 3.88 µg/mL) | MIC (μmol/L) H99 48 h ([2]; H99 (serotype A, 48 h)): 2.1 µmol/L (≈ 8.15 µg/mL) | MIC (mg/L) KN99α 24 h [3, 4]: 4 to 8 mg/L | MIC (μmol/L) KN99α 24 h [3, 4]: 1.0 to 2.1 µmol/L | MIC (μmol/L) KN99α 48 h ([3]; KN99α (serotype A, mating type MATα, 48 h)): 2.1 µmol/L (≈ 8.15 µg/mL)
Compound: CC[C@H](C)[C@H](NC(=O)CNC(=O)[C@H](CCC(=O)O)NC(=O)[C@H](CCCCN)NC(=O)[C@H](CC(C)C)NC(=O)[C@H](CCCCN)NC(=O)[C@H](CCCCN)NC(=O)[C@@H](NC(=O)CNC(=O)[C@H](CCC(N)=O)NC(=O)[C@H](CCCCN)NC(=O)[C@@H](NC(=O)[C@H](CCCCN)NC(=O)[C@H](CC(N)=O)NC(=O)[C@H](Cc1ccccc1)NC(=O)[C@H](Cc1ccccc1)NC(=O)[C@H](CCC(N)=O)NC(=O)[C@H](CCCCN)NC(=O)[C@H](CC(C)C)NC(=O)[C@@H](NC(=O)[C@@H]1CCCN1C(=O)[C@H](CCC(N)=O)NC(=O)[C@@H]1CCCN1C(=O)[C@H](CCC(=O)O)NC(=O)[C@@H](N)CCC(N)=O)C(C)C)[C@@H](C)CC)[C@@H](C)CC)C(=O)N[C@@H](CCCCN)C(=O)N[C@@H](CCC(=O)O)C(=O)NCC(=O)NCC(=O)N[C@@H](CCCCN)C(=O)N[C@@H](CCCNC(=N)N)C(=O)N[C@@H](CC(C)C)C(=O)N[C@@H](CC(C)C)C(=O)NCC(=O)O [CRAMP rev] (H-QEPQPVLKQFFNKIKQGIKKLKEGIKEGGKRLLG-OH)

MIC (μmol/L) 1841 24 h ([1]; broth microdilution, 50% SAB in phosphate buffer pH 7.5, 5 × 10^4 CFU/mL, 30°C, read after 24 h, mean of six replicates (n = 6)): 7.0 µmol/L | MIC (μmol/L) 1841 48 h ([1]; broth microdilution, 50% SAB in phosphate buffer pH 7.5, 5 × 10^4 CFU/mL, 30°C, read after 48 h, n = 6): 14 to 28 µmol/L | MIC (mg/L) 1841 24 h [1, 5]: 16 mg/L | MIC (mg/L) 1841 48 h [1, 6]: 32 to 64 mg/L | MIC (μmol/L) H99 24 h [2, 5]: 28 µmol/L | MIC (μmol/L) H99 48 h [2, 6]: 56 µmol/L | MIC (μmol/L) KN99α 24 h [3, 5]: 28 µmol/L | MIC (μmol/L) KN99α 48 h [3, 6]: 56 µmol/L
Compound: gu-OPNRYIRPRLPPHPNRPV-NH2 [Api88 scr]

MIC (mg/L) 24 h, Cf-labeled peptides ([1]; 1841 (serotype D, 24 h)): > 64 mg/L | MIC (after 48 h) ([1]; 1841 (serotype D, 48 h)): 28 µM (≈ 74.2 µg/mL) | MIC (mg/L) 48 h, Cf-labeled peptides ([1]; 1841 (serotype D, 48 h)): > 64 mg/L
Compound: CC[C@H](C)[C@H](NC(=O)[C@H](Cc1ccc(O)cc1)NC(=O)[C@@H](NC(=O)[C@@H]1CCCN1C(=O)[C@H](CCCNC(=N)N)NC(=O)[C@H](CC(N)=O)NC(=O)[C@H](CC(N)=O)NC(=O)[C@H](CCCNC(=O)c1ccc2c(c1)C(=O)OC21c2ccc(O)cc2Oc2cc(O)ccc21)N=C(N(C)C)N(C)C)C(C)C)C(=O)N1CCC[C@H]1C(=O)N[C@@H](CCCNC(=N)N)C(=O)N1CCC[C@H]1C(=O)N[C@@H](CCCNC(=N)N)C(=O)N1CCC[C@H]1C(=O)N1CCC[C@H]1C(=O)N[C@@H](Cc1c[nH]cn1)C(=O)N1CCC[C@H]1C(=O)N[C@@H](CCCNC(=N)N)C(=O)N[C@@H](CC(C)C)C(=O)O [Cf-Api137] (5FAM-[δOrn(α-TMG)]NNRPVYIPRPRPPHPRL-OH)
activity of Cf-labeled peptide relative to the corresponding unlabeled peptide [1]: slightly less active

MIC (mg/L) 24 h, Cf-labeled peptides ([1]; 1841 (serotype D, 24 h)): 4 to 8 mg/L | MIC (after 48 h) ([1]; 1841 (serotype D, 48 h)): 6.7 µM (≈ 18.4 µg/mL) | MIC (mg/L) 48 h, Cf-labeled peptides ([1]; 1841 (serotype D, 48 h)): 4 to 8 mg/L
Compound: CC[C@H](C)[C@H](NC(=O)[C@@H](CCCNC(=N)N)NC(=O)[C@H](CCCNC(=N)N)NC(=O)[C@@H]1CCCN1C(=O)[C@@H]1CCCN1C(=O)[C@H](CCCNC(=N)N)NC(=O)[C@@H]1CCCN1C(=O)[C@H](CCCNC(=N)N)NC(=O)[C@@H]1CCCN1C(=O)[C@H](CC(C)C)NC(=O)[C@H](Cc1ccc(O)cc1)NC(=O)[C@@H]1CCCN1C(=O)[C@@H]1CCCN1C(=O)[C@H](CCCCN)NC(=O)[C@H](CC(=O)O)NC(=O)[C@@H](NC(=O)c1ccc2c(c1)C(=O)OC21c2ccc(O)cc2Oc2cc(O)ccc21)C(C)C)C(=O)N[C@@H](Cc1ccc(O)cc1)C(=O)N[C@@H](CC(N)=O)C(=O)N[C@H](CCCNC(=N)N)C(N)=O [Cf-Onc112] (5FAM-VDKPPYLPRPRPPR[dR]IYN[dR]-NH2)
activity of Cf-labeled peptide relative to the corresponding unlabeled peptide [1]: slightly more active

MIC (after 48 h) ([1]; 1841 (serotype D, 48 h)): 3.2 µM (≈ 9.21 µg/mL) | MIC (mg/L) 24 h, Cf-labeled peptides ([1]; C. neoformans 1841, read after 24 h, mean of three replicates (n = 3)): 4 mg/L (≈ 1.39 µM) | MIC (mg/L) 48 h, Cf-labeled peptides ([1]; C. neoformans 1841, read after 48 h, mean of three replicates (n = 3)): 4 mg/L (≈ 1.39 µM)
Compound: CC[C@H](C)[C@H](NC(=O)[C@H](CCCNC(=O)c1ccc2c(c1)C(=O)OC21c2ccc(O)cc2Oc2cc(O)ccc21)N=C(N(C)C)N(C)C)C(=O)N[C@@H](CCCN)C(=O)N[C@H](C(=O)N[C@@H](CCCN)C(=O)N[C@@H](CCCNC(=N)N)C(=O)N1CCC[C@H]1C(=O)N[C@H](C(=O)N[C@@H](Cc1ccc(O)cc1)C(=O)N[C@@H](CCCN)C(=O)N1CCC[C@H]1C(=O)N[C@@H](CCCNC(=N)N)C(=O)N1CCC[C@H]1C(=O)N[C@@H](CCCNC(=N)N)C(=O)N1CCC[C@H]1C(=O)N1CCC[C@H]1C(=O)N[C@@H](Cc1c[nH]cn1)C(=O)N1CCC[C@H]1C(=O)N[C@@H](CCCNC(=N)N)C(=O)N[C@@H](CC(C)C)C(=O)O)C(C)C)[C@@H](C)CC [Cf-Api795] (5FAM-[δOrn(α-TMG)]I[Orn]I[Orn]RPVY[Orn]PRPRPPHPRL-OH)
activity of Cf-labeled peptide relative to the corresponding unlabeled peptide [1]: slightly more active
